B1: BDNF: Brain Derived Neurotrophic Factor, a neurotrophin; native ligand of TrkB (protein, UniProt P23560 19-247, looked up)
Neurotrophic factor BDNF …: APMKEANIRGQGGLAYPGVRTHGTLESVNGPKAGSRGLTSLADTFEHVIEELLDEDQKVRPNEENNKDADLYTSRVMLSSQVPLEPPLLFLLEEYKNYLDAANMSMRVRRHSDPARRGELSVCDSISEWVTAADKKTAVDMSGGTVTVLEKVPVSKGQLKQYFYETKCNPMGYTKEGCRGIDKRHWNSQCRTTQSYVRALTMDSKKRIGWRFIRIDTSCVCTLTIKRGR

Tests used:
[1] = test system: E16-17 hippocampal neurons; assay: Aβ-induced neuronal degeneration (Alzheimer's disease model); format: cell-based; details: for prevention of Aβ-induced degeneration: Aβ1-42 oligomer 10 μM
Description: The ability of the BDNF mimetics to prevent Aβ-induced neuronal degeneration can be tested as a model of the compounds' ability to treat Alzheimer's disease. E16-17 hippocampal neurons are matured for 6 days and then incubated for 3 days with the indicated combinations of Aβ oligomer preparations (Dahigren, K. N., et al. (2002) J Biol Chem 277, 32046-32053), neurotrophins and neurotrophin mimetics. Following the three day incubation, neuronal survival is assessed using standard morphological criteria (Massa, S. M., et al. (2006) J Neurosci 26, 5288-5300).
Addition of Aβ1-42 oligomer (10 μM) but not control AβScrambled oligomer (10 μM) results in an approximate 40% reduction in neuronal survival. […] The effectiveness of BDNF mimetics of the present invention can be compared to BDNF in blocking Aβ-induced degeneration.

TrkB = molecular target: T1, TrkB (Homo sapiens, UniProt Q16620); assay: Trk activation by Western blot of phospho-Trk in NIH3T3 cells expressing TrkB; format: cell-based
T1 construct: expressed in transfected cells; host or cells: NIH3T3 (mouse fibroblasts, no native Trk receptors)
Excerpt: (§1) To assess the interactions of the BDNF loop 2 mimetic compounds with TrkB receptors, the ability of the compounds of the invention to activate TrkA, TrkB, and TrkC is compared in a series of Western blotting experiments. […] Western blots were used to detect phospho-Trk which is a standard method for detecting Trk activation.

TrkC = molecular target: T2, TrkC (Homo sapiens, UniProt Q16288); assay: Trk activation by Western blot of phospho-Trk in NIH3T3 cells expressing TrkC; format: cell-based
T2 construct: expressed in transfected cells; host or cells: NIH3T3 (mouse fibroblasts, no native Trk receptors)
Description: as §1
A measurement of NIH3T3 cells expressing TrkC can also be used to evaluate the compounds of the invention. Total amount of TrkC present is determined by probing with anti-TrkC antibodies.

[2] = test system: mouse E16 striatal neurons; details: cited from earlier work
TrkA = molecular target: T3, TrkA (Homo sapiens, UniProt P04629); assay: Trk activation by Western blot of phospho-Trk in NIH3T3 cells expressing TrkA; format: cell-based
T3 construct: expressed in transfected cells; host or cells: NIH3T3 (mouse fibroblasts, no native Trk receptors)
Excerpt: as §1

T2 sequence (Q16288 32-839): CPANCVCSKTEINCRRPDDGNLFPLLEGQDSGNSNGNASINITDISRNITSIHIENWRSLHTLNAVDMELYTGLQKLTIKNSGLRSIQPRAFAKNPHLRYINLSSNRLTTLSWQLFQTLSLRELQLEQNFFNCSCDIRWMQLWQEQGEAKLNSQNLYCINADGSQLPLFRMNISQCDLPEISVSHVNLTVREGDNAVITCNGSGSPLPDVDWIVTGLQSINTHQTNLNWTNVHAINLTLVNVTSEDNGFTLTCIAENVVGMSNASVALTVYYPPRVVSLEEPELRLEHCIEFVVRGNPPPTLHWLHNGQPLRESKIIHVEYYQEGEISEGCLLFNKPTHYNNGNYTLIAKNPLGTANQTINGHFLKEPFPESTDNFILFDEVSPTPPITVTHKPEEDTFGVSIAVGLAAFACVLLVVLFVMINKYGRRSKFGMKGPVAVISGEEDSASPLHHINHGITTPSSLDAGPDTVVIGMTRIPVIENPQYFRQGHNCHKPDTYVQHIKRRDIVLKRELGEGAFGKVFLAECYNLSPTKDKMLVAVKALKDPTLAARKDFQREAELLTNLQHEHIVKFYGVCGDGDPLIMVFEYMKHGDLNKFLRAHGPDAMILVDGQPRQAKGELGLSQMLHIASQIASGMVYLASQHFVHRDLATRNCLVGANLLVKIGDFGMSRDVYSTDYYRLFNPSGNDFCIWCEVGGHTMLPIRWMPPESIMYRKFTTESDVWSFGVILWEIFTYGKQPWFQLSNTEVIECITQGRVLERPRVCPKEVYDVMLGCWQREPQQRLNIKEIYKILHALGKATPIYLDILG
T1 sequence (Q16620 32-822): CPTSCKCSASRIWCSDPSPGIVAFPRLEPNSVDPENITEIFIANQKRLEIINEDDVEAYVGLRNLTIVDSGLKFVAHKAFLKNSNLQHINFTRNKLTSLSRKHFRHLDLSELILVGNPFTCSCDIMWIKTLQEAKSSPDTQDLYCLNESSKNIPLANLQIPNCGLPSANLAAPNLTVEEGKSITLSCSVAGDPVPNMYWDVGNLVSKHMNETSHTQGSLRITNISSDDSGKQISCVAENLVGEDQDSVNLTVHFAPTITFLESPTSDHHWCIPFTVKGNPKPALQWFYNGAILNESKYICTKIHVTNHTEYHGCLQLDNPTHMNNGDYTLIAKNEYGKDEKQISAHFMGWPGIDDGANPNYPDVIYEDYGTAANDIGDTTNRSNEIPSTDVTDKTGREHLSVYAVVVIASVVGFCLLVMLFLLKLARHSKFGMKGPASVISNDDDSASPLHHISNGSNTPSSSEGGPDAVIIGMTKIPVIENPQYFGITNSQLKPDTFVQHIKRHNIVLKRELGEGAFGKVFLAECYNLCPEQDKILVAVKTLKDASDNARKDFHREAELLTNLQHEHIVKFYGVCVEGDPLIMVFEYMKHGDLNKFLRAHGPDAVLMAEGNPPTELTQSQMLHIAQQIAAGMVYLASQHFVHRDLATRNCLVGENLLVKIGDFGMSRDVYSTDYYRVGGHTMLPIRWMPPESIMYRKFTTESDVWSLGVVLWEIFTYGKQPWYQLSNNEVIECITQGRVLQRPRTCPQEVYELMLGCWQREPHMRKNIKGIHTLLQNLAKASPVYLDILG
T3 sequence (P04629 33-796): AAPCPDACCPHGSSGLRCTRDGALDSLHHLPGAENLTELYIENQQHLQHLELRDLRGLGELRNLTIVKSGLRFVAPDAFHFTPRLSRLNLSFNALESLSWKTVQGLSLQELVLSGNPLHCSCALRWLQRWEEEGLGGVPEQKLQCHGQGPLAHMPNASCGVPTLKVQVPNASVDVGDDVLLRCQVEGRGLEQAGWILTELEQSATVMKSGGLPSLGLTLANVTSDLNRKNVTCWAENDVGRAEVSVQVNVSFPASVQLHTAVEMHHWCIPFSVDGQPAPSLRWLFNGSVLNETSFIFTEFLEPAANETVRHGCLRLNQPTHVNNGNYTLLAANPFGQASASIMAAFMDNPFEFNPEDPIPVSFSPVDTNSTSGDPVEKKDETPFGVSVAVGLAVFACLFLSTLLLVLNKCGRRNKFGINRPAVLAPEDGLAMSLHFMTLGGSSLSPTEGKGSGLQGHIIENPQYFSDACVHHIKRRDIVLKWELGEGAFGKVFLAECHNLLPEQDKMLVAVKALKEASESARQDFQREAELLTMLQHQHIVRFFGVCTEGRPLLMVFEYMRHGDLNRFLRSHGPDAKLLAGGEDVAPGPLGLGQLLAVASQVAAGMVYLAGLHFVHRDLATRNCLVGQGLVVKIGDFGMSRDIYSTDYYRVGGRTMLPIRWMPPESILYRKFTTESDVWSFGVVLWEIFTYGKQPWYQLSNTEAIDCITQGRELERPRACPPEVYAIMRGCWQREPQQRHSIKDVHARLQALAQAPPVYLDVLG

| Molecule | prevention of Aβ-induced degeneration ([1]; 3 day incubation) | activation of TrkB (Trk phosphorylation, anti-TrkY490) (TrkB) | phosphorylation of Trk in TrkC-expressing cells (TrkC) | further results |
| --- | --- | --- | --- | --- |
| CC[C@H](C)[C@H](N)C(=O)NCCN1CCOCC1 [LM11A-31, reference compound] | blocks Aβ-induced degeneration |  |  |  |
| NGF: Nerve Growth Factor, a neurotrophin; native ligand of TrkA | fails to prevent Aβ-induced degeneration | do not activate TrkB |  | effect on LM11A-31 blocking of Aβ-induced degeneration ([1]; NGF together with LM11A-31): blocked |
| NT-3: Neurotrophin-3; native ligand of TrkC |  |  | promotes the phosphorylation of Trk |  |
| Aβ1-42 oligomer: amyloid-β 1-42 oligomer preparation used to induce neuronal degeneration [reference compound] |  |  |  | reduction in neuronal survival ([1]; 10 μM, 3 day incubation): ~40% |
| COC(=O)[C@@]1(O)C[C@H]2O[C@]1(C)n1c3ccccc3c3c4c(c5c6ccccc6n2c5c31)C(=O)NC4 [Compound K252a] |  |  |  | effect on quinolinic acid-induced death ([2]; K252a alone): no effect; effect on the ability of BDNF to prevent quinolinic acid-induced death ([2]; K252a with BDNF): blocks the ability of BDNF to prevent death |
| B1 |  | activate TrkB | do not | activation of TrkA (Trk phosphorylation) (TrkA): does not; prevention of quinolinic acid-induced death ([2]; previous work): can prevent quinolinic acid-induced death |
